According to patent US5679712A, “Substituted benzoylguanidines, process for their preparation, their use as a pharmaceutical or diagnostic, and pharmaceutical containing them” (priority 1995, dated 1997):
pIC50: −log10 of the molar value. Structures can show the parent of a compound that is named as a salt.

Columns and labels:
[1] = biological target: T1, Na^+ /H^+ exchanger of rabbit erythrocytes (Oryctolagus cuniculus, UniProt P23791); assay: Inhibition of the Na^+/H^+ exchanger of rabbit erythrocytes (amiloride-sensitive sodium influx, flame photometry); type: cell-based, rabbit (New Zealand White); details: cholesterol-fed rabbits, hyperosmolar salt/sucrose medium, pH 7.4, 37° C.
T1 construct: endogenous in cells; host or cells: erythrocytes (whole blood samples) of New Zealand White rabbits (Ivanovas) fed 2% cholesterol
T1 sequence (P23791 whole entry): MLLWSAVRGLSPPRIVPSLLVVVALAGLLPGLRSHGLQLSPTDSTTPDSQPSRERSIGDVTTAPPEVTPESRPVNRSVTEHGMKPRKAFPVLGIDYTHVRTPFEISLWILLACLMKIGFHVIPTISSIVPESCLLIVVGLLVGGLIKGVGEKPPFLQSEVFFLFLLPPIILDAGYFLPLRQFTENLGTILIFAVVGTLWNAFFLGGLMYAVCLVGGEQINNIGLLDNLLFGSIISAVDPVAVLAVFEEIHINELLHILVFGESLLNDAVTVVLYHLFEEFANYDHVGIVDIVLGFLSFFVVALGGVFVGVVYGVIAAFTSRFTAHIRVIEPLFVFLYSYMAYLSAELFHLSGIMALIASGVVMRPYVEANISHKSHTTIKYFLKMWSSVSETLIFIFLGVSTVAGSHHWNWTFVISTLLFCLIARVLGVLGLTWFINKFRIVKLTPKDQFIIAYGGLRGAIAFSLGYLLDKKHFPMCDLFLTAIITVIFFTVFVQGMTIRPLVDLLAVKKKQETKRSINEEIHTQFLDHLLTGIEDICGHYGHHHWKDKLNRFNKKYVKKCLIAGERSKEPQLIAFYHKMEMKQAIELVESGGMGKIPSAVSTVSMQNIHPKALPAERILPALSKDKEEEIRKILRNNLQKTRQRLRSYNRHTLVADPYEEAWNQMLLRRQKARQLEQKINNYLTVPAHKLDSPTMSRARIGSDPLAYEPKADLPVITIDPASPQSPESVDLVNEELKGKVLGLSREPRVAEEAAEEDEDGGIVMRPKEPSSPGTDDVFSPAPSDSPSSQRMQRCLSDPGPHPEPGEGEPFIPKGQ
Excerpt: Inhibition of the Na^+ /H^+ exchanger of rabbit erythrocytes
New Zealand White rabbits (Ivanovas) were given a standard diet containing 2% cholesterol for six weeks in order to activate Na^+ /H^+ exchange and thus to be able to determine, by flame photometry, the influx of Na^+ into the erythrocytes by way of Na^+ /H^+ exchange. The blood was removed from the aural arteries and rendered incoagulable with 25 IU of potassium heparin. A portion of each sample was used to determine the hematocrit in duplicate by centrifugation. Aliquots of 100 μl in each case were used for measuring the initial content of Na^+ in the erythrocytes.
In order to determine the amiloride-sensitive sodium influx, 100 μl of each blood sample were in each case incubated in 5 ml of a hyperosmolar salt/sucrose medium (mmol/l: 140 NaCl, 3 KCl, 150 sucrose, 0.1 ouabain, 20 tris-hydroxymethylaminomethane) at pH 7.4 and 37° C. After that, the erythrocytes were washed three times with ice-cold MgCl2 /ouabain solution (mmol/l: 112 MgCl2, 0.1 ouabain), and hemolyzed in 2.0 ml of distilled water. The intracellular content of sodium was determined by flame photometry.
The net influx of Na^+ was calculated from the difference between the initial sodium values and the sodium content of the erythrocytes following incubation. The amiloride-inhibitable sodium influx was obtained from the difference in the sodium content of the erythrocytes following incubation with and without 3×10^-4 mol/l amiloride. The same procedure was used for the compounds according to the invention.

rats' hearts = details: isolated rat hearts; cited from earlier work

COc1ccc(C(=O)N=C(N)N)cc1C(C)=O [Example 2, 3-Acetyl-4-methoxybenzoylguanidine hydrochloride]
pIC50 [1]: 6.00

CC(=O)c1cc(C(=O)N=C(N)N)ccc1OC(C)C [Example 3, 3-Acetyl-4-isopropoxybenzoylguanidine hydrochloride]
pIC50 [1]: 5.96

CC(=O)c1cc(C(=O)N=C(N)N)ccc1O [Example 1, 3-Acetyl-4-hydroxybenzoylguanidine]
pIC50 [1]: 5.70

CCN(c1nc(N)c(C(=O)NC(=N)N)nc1Cl)C(C)C [ethylisopropylamiloride]
potency relative to amiloride, ventricular fibrillation model (rats' hearts): even more potent than amiloride itself

CC(=O)c1cc(C(=O)N=C(N)N)ccc1OCc1ccccc1 [Example 4, 3-Acetyl-4-benzyloxybenzoylguanidine hydrochloride]
pIC50 [1]: 5.92
